Reference: patent publication US9598362B2, “Benzidine derivative, method for preparing same, and pharmaceutical composition containing benzidine derivative for treating liver disease caused by hepatitis C virus” (priority 2013, dated 2017)
pEC50: −log10 of the molar value. Where two headings read alike, the source gives them in different places.

Columns and labels:
HCV replicon NK/R2AN = assay: Evaluation of anti-HCV activity 2: inhibition of HCV replication, huh7.5.1 cells with replicon NK/R2AN, renilla luciferase; type: cell-based; settings: for pEC50: Hepatitis C virus; for EC50 (in words): duplicated HCV treated with compound
Procedure: To evaluate the anti-HCV activity, that is the activity to inhibit HCV replication, of the compound represented by formula 1 of the present invention, the following experiment was performed.
The hepatoma cell line huh7.5.1 having NK/R2AN, the replicon with which the replication and translation of HCV could be measured, was distributed in a 12-well cell culture plate at the density of 50,000 cells/well. The cells were cultured in DMEM (Dulbecco's Modified Eagle's Medium 12800-017, GIBCO Co.) supplemented with 10% (v/v) FBS (Fetal Bovine Serum SH30406.02, Hyclone Co.), 1% (v/v) antibiotics (penicillin/streptomycin solution SV30010, Hyclone Co.), and G418 (600 μg/mL, Calbiochem) in a 37° C. 6.0% CO2 incubator (CO2 Incubator 311, Forma Scientific Co, Lnc. USA) for 24 hours to lead cell attachment on the plate. Then, the cells were inoculated with HCV having renilla luciferase gene as a reporter for 3 hours. Upon completion of the virus inoculation, the cell culture medium was replaced with the medium containing the compounds prepared in Examples 1˜24 were added to the culture medium at the concentrations of 40 pM˜1 μM each. The cells were cultured in a 37° C. 6.0% CO2 incubator (CO2 Incubator 311, Forma Scientific Co, Lnc. USA) for 3 days. Three days after the infection, the cell culture medium was collected to measure the cytotoxicity in the following Experimental Example 3. The cells attached on the plate were washed with PBS (phosphate buffered saline) and then lysed by treating 100 μl of 1× passive lysis buffer (Promega, E1941). The cell lysate (10 μl) was added to renilla luciferase assay reagent (50 μl) in renilla luciferase assay system (Promega, E2820), followed by measurement of luminescence for 10 seconds using the luciferase measure program with Luminometer (GLOMAX 20/20 Luminometer, Promega). At this time, the measurement of luminescence was performed in triplicate with the groups treated with the compounds of Examples 1˜24 and the non-treated control group. The mean value was calculated and compared. The luminescence of each compound over the concentration was converted into EC50 (half maximal effective concentration) by using sigma plot program, and the results are shown in Table 3. At this time, when EC50 was under 100 pM, it was marked as A; when EC50 was in the range of 100 pM 1 nM, it was marked as B; when EC50 was in the range of 1 nM˜100 nM, it was marked as C; and when EC50 was over 100 nM, it was marked as D. The results are shown in Table 3.

HCV (JFH-5aFlucm4) = assay: Evaluation of anti-HCV activity 1: huh7.5.1 cells inoculated with HCV carrying renilla luciferase reporter; type: cell-based; settings: Hepatitis C virus
Procedure: To evaluate the anti-HCV activity of the compound represented by formula 1 of the present invention, the following experiment was performed.
The hepatoma cell line huh7.5.1 was distributed in a 12-well cell culture plate at the density of 50,000 cells/well. The cells were cultured in DMEM (Dulbecco's Modified Eagle's Medium 12800-017, GIBCO Co.) supplemented with 10% (v/v) FBS (Fetal Bovine Serum SH30406.02, Hyclone Co.) and 1% (v/v) antibiotics (penicillin/streptomycin solution SV30010, Hyclone Co.) in a 37° C. 6.0% CO2 incubator (CO2 Incubator 311, Forma Scientific Co, Lnc. USA) for 24 hours to lead cell attachment on the plate. Then, the cells were inoculated with HCV (JFH-5aFlucm4, PLoS One. 2011; 6(8):e228808.) having renilla luciferase gene as a reporter for 3 hours. Upon completion of the virus inoculation, the cell culture medium was replaced with the medium containing the compounds prepared in Examples 1˜24 at the concentration of 1 μM each. The cells were cultured in a 37° C. 6.0% CO2 incubator (CO2 Incubator 311, Forma Scientific Co, Lnc. USA) for 3 days. Three days after the infection, the cell culture medium was collected to measure the cytotoxicity in the following Experimental Example 3. The cells attached on the plate were washed with PBS (phosphate buffered saline) and then lysed by treating 100 μl of 1× passive lysis buffer (Promega, E1941). The cell lysate (10 μl) was added to renilla luciferase assay reagent (50 μl) in renilla luciferase assay system (Promega, E2820), followed by measurement of luminescence for 10 seconds using the luciferase measure program with Luminometer (GLOMAX 20/20 Luminometer, Promega). At this time, the measurement of luminescence was performed in triplicate with the groups treated with the compounds of Examples 1˜24 and the non-treated control group. The mean value was calculated and compared. The luminescence of each compound over the concentration was converted into EC50 (half maximal effective concentration) by using sigma plot program, and the results are shown in Table 2.

[1] = Huh-7.5.1, 72 h, read-out: EC50 grade
[2] = Huh-7.5.1, replicon huh7.5.1 cells, Table 3, read-out: EC50

## COC(=O)N[C@@H](C(=O)N1CCC[C@H]1C(=O)Nc1ccc(-c2ccc(NC(=O)[C@@H]3CCCN3C(=O)[C@H](NC(=O)OC)c3ccccc3)cc2Cl)c(Cl)c1)c1ccccc1 [Example 6, dimethyl((1R,1′R)-((2S,2′S)-2,2′-(((2,2′-dichloro-[1,1′-biphenyl]-4,4′-diyl)bis(azandiyl))bis(carbonyl))bis(pyrrolidine-2,1-diyl))bis(2-oxo-1-phenylethane-2,1-diyl))dicarbamate]
HCV replicon NK/R2AN; [1]
  pEC50: > 10.00
HCV replicon NK/R2AN; [2]
  pEC50: > 10.00
HCV replicon NK/R2AN
  EC50 (in words): significantly low
HCV (JFH-5aFlucm4); Huh-7.5.1
  pEC50: > 9.00
HCV (JFH-5aFlucm4); [1]
  pEC50: > 9.00

## COC(=O)N[C@@H](C)C(=O)N1CCC[C@H]1C(=O)Nc1ccc(-c2ccc(NC(=O)[C@@H]3CCCN3C(=O)[C@H](C)NC(=O)OC)cc2)cc1 [Example 18, dimethyl(2S,2′S)-1,1′-((2S,2′R)-2,2′-(biphenyl-4,4′-diylbis(azandiyl))bis(oxomethylene)bis(pyrrolidine-2,1-diyl))bis(1-oxopropane-2,1-diyl)dicarbamate]
HCV (JFH-5aFlucm4); [1]
  pEC50: < 7.00

## O=C(Nc1ccc(-c2ccc(NC(=O)[C@@H]3CCCN3C(=O)[C@H]3CCCO3)cc2)cc1)[C@@H]1CCCN1C(=O)[C@H]1CCCO1 [Example 17]
HCV (JFH-5aFlucm4); [1]
  pEC50: < 7.00

## COC(=O)N[C@@H](C(=O)N1CCCC[C@H]1C(=O)Nc1ccc(-c2ccc(NC(=O)[C@@H]3CCCCN3C(=O)[C@H](NC(=O)OC)c3ccccc3)cc2)cc1)c1ccccc1 [Example 10, dimethyl((1R,1′R)-((2S,2′S)-2,2′-(([1,1′-biphenyl]-4,4′-diylbis(azandiyl))bis(carbonyl))bis(piperidine-2,1-diyl))bis(2-oxo-1-phenylethane-2,1-diyl))dicarbamate]
HCV replicon NK/R2AN; [1]
  pEC50: 7.00 to 9.00
HCV (JFH-5aFlucm4); [1]
  pEC50: < 7.00

## COC(=O)N[C@@H](C(=O)N1CC(=O)C[C@H]1C(=O)Nc1ccc(-c2ccc(NC(=O)[C@@H]3CC(=O)CN3C(=O)[C@H](NC(=O)OC)c3ccccc3)cc2)cc1)c1ccccc1 [Example 9, dimethyl((1R,1′R)-((5S,5′S)-5,5′-(([1,1′-biphenyl]-4,4′-diylbis(azandiyl))bis(carbonyl))bis(3-oxopyrrolidine-5,1-diyl))bis(2-oxo-1-phenylethane-2,1-diyl))dicarbamate]
HCV replicon NK/R2AN; Huh-7.5.1
  pEC50: > 10.00
HCV replicon NK/R2AN; [1]
  pEC50: > 10.00
HCV replicon NK/R2AN
  EC50 (in words): significantly low
HCV (JFH-5aFlucm4); Huh-7.5.1
  pEC50: > 9.00
HCV (JFH-5aFlucm4); [1]
  pEC50: > 9.00

## COC(=O)N[C@@H](C(=O)N1CCCC[C@@H]1C(=O)Nc1ccc(-c2ccc(NC(=O)[C@H]3CCCCN3C(=O)[C@H](NC(=O)OC)c3ccccc3)cc2)cc1)c1ccccc1 [Example 11, dimethyl((1R,1′R)-((2R,2′R)-2,2′-(([1,1′-biphenyl]-4,4′-diylbis(azandiyl))bis(carbonyl))bis(piperidine-2,1-diyl))bis(2-oxo-1-phenylethane-2,1-diyl))dicarbamate]
HCV replicon NK/R2AN; [1]
  pEC50: < 7.00
HCV (JFH-5aFlucm4); [1]
  pEC50: < 7.00

## CN(C)[C@@H](C(=O)N1CCC[C@H]1C(=O)Nc1ccc(-c2ccc(NC(=O)[C@@H]3CCCN3C(=O)[C@@H](c3ccccc3)N(C)C)cc2)cc1)c1ccccc1 [Example 14, (S,2S,2′S)—N,N′-(biphenyl-4,4′-diyl)bis(1-((S)-2-(dimethylamino)-2-phenylacetyl)pyrrolidine-2-carboxamide)]
HCV replicon NK/R2AN; [1]
  pEC50: 9.00 to 10.00
HCV (JFH-5aFlucm4); [1]
  pEC50: 7.00 to 9.00

## COC(=O)N[C@@H](C(=O)N1CCC[C@]1(C)C(=O)Nc1ccc(-c2ccc(NC(=O)[C@@]3(C)CCCN3C(=O)[C@H](NC(=O)OC)c3ccccc3)cc2)cc1)c1ccccc1 [Example 12, dimethyl((1R,1′R)-((2S,2′S)-2,2′-(([1,1′-biphenyl]-4,4′-diylbis(azandiyl))bis(carbonyl))bis(2-methylpyrrolidine-2,1-diyl))bis(2-oxo-1-phenylethane-2,1-diyl))dicarbamate]
HCV replicon NK/R2AN; [1]
  pEC50: 7.00 to 9.00
HCV (JFH-5aFlucm4); [1]
  pEC50: < 7.00

## COC(=O)N[C@@H](C(=O)N1CCC[C@@H]1C(=O)Nc1ccc(-c2ccc(NC(=O)[C@H]3CCCN3C(=O)[C@H](NC(=O)OC)c3ccccc3)cc2)cc1)c1ccccc1 [Example 8, dimethyl((1R,1′R)-((2R,2′R)-2,2′-(([1,1′-biphenyl]-4,4′-diylbis(azandiyl))bis(carbonyl))bis(pyrrolidine-2,1-diyl))bis(2-oxo-1-phenylethane-2,1-diyl))dicarbamate]
HCV replicon NK/R2AN; [1]
  pEC50: 7.00 to 9.00
HCV (JFH-5aFlucm4); [1]
  pEC50: < 7.00

## COC(=O)N[C@@H](C(=O)N1CCC[C@H]1C(=O)Nc1ccc2c(c1)Cc1cc(NC(=O)[C@@H]3CCCN3C(=O)[C@H](NC(=O)OC)c3ccccc3)ccc1-2)c1ccccc1 [Example 4, dimethyl((1R,1′R)-((2S,2′S)-2,2′-(((9H-fluorene-2,7-diyl)bis(azandiyl))bis(carbonyl))bis(pyrrolidine-2,1-diyl))bis(2-oxo-1-phenylethane-2,1-diyl))dicarbamate]
HCV replicon NK/R2AN; Huh-7.5.1
  pEC50: > 10.00
HCV replicon NK/R2AN; [1]
  pEC50: > 10.00
HCV replicon NK/R2AN
  EC50 (in words): significantly low
HCV (JFH-5aFlucm4); [1]
  pEC50: 7.00 to 9.00

## COC(=O)N[C@@H](C(=O)N1CCC[C@H]1C(=O)Nc1ccc2c(c1)C(F)(F)c1cc(NC(=O)[C@@H]3CCCN3C(=O)[C@H](NC(=O)OC)c3ccccc3)ccc1-2)c1ccccc1 [Example 22, dimethyl((1R,1′R)-((2S,2′S)-2,2′-(((9,9-difluoro-9H-fluorene-2,7-diyl)bis(azandiyl))bis(carbonyl))bis(pyrrolidine-2,1-diyl))bis(2-oxo-1-phenylethane-2,1-diyl))dicarbamate]
HCV replicon NK/R2AN; [1]
  pEC50: > 10.00
HCV replicon NK/R2AN; [2]
  pEC50: > 10.00
HCV replicon NK/R2AN
  EC50 (in words): significantly low
HCV (JFH-5aFlucm4); Huh-7.5.1
  pEC50: > 9.00
HCV (JFH-5aFlucm4); [1]
  pEC50: > 9.00

## COC(=O)N[C@H](C(=O)N1CCC[C@H]1C(=O)Nc1ccc(-c2ccc(NC(=O)[C@@H]3CCCN3C(=O)[C@@H](NC(=O)OC)C(C)C)cc2)cc1)C(C)C [Example 20, dimethyl(2S,2′S)-1,1′-((2S,2′R)-2,2′-(biphenyl-4,4′-diylbis(azandiyl))bis(oxomethylene)bis(pyrrolidine-2,1-diyl))bis(3-methyl-1-oxobutane-2,1-diyl)dicarbamate]
HCV (JFH-5aFlucm4); [1]
  pEC50: < 7.00

## COC(=O)N[C@H](C(=O)N1CCC[C@H]1C(=O)Nc1ccc(-c2ccc(NC(=O)[C@@H]3CCCN3C(=O)[C@@H](NC(=O)OC)C(C)(C)C)cc2)cc1)C(C)(C)C [Example 19, dimethyl(2S,2′S)-1,1′-((2S,2′R)-2,2′-(biphenyl-4,4′-diylbis(azandiyl))bis(oxomethylene)bis(pyrrolidine-2,1-diyl))bis(3,3-dimethyl-1-oxobutane-2,1-diyl)dicarbamate]
HCV (JFH-5aFlucm4); [1]
  pEC50: 7.00 to 9.00

## COC(=O)N[C@@H](C(=O)N1CCC[C@H]1C(=O)Nc1ccc(-c2ccc(NC(=O)[C@@H]3CCCN3C(=O)[C@H](NC(=O)OC)C(C)C)cc2)cc1)C(C)C [Example 13, dimethyl(2R,2′R)-1,1′-((2S,2′S)-2,2′-(biphenyl-4,4′-diylbis(azandiyl))bis(oxomethylene)bis(pyrrolidine-2,1-diyl))bis(3-methyl-1-oxobutane-2,1-diyl)dicarbamate]
HCV (JFH-5aFlucm4); [1]
  pEC50: < 7.00
